Patent publication US4505914A, “Pharmaceutical for the treatment of sleep disorders” (Merckle GmbH, priority 1982, dated 1985)
Values joined by “and” are separate entries in the source; they are usually repeats but may differ in a detail not shown here. Equal entries are not always repeated.

Assays:
male NMRJ mice [1] = assay: Determination of the oral ED50 of the barbiturates (sleep time); assay type: in vivo, mouse; conditions: for ED50: Mus musculus, 0.5 h, oral, dose required for a 30-minute sleeping period
Source text: (§1) A typical representative from the group of barbiturates with long action (phenobarbital), with short to average action (cyclobarbital-calcium) as well as ultra short action (hexobarbital) as well as a combination of two barbiturates (cyclobarbital-calcium+hexobarbital) was applied orally in graduated doses.
Determination of the oral ED50 of
the barbiturates using 10 male NMR.tau. mice/group

male NMRJ mice [2] = assay: Sleeping time prolongation under the influence of cinnarizine and flunarizine (ED50); assay type: in vivo, mouse; conditions: for ED50: sleeping time increased by 50%; for Effect on the action of barbiturates: in words
Source text: as §1
Determination of the sleeping time prolongation under the influence of […]

[3] = literature, in words; cited from earlier work
[4] = in words; cited from earlier work
[5] = literature, in words; cited from earlier work; remark: listed apart in the source
male NMR.tau. mice [6] = assay: Onset of effect (beginning of the excitation stage); assay type: in vivo, mouse
Procedure: (§2) As a criterium for the onset of the effect, the beginning of the excitation stage was measured. For the optimum effect, the beginning of the sleep phase was tested every 10 minutes by the tail and corneal reflex (according to Irvin) according to the following designations:
(§3) Sleeping Time, Onset of Effect and Optium Effect under the influence of […]

male NMR.tau. mice [7] = assay: Sleep duration, prolongation of sleeping time and ED50 under the influence of cinnarizine (Table 3); assay type: in vivo, mouse
Source text: as §1

tail and corneal reflex = assay: Optimum effect (tail and corneal reflex according to Irvin); assay type: in vivo, mouse; parameters: key to Optimum Reflex: 0: normal reaction; -1: slightly lessened; -2: clearly lessened; -3: highly lessened; -4: complete lack of reaction
Procedure: as §2
-4 = complete lack of reaction
as §3

[8] = cyclobarbital calcium 239 mg/kg alone (C)
[9] = hexobarbital 710 mg/kg alone (C)
[10] = cinnarizine 0.50 + hexobarbital 710 mg/kg
[11] = cinnarizine 0.75 + hexobarbital 710 mg/kg
[12] = cinnarizine 1.0 + cyclobarbital calcium 239 mg/kg
[13] = cinnarizine 1.0 + cyclobarbital calcium + hexobarbital (40 + 30) 225 mg/kg
[14] = cinnarizine 1.00 + hexobarbital 710 mg/kg
[15] = cinnarizine 2.5 + cyclobarbital calcium 239 mg/kg
[16] = cinnarizine 2.5 + cyclobarbital calcium + hexobarbital (40 + 30) 225 mg/kg
[17] = cinnarizine 5.0 + cyclobarbital calcium 239 mg/kg
[18] = cinnarizine 5.0 + cyclobarbital calcium + hexobarbital (40 + 30) 225 mg/kg

## CCC1(c2ccccc2)C(=O)NC(=O)NC1=O [Phenobarbital]
Male NMRJ mice [1]; 200 mg/kg oral
  Sleep Time: 4.29 min
Male NMRJ mice [1]; 250 mg/kg oral
  Sleep Time: 27.52 min
Male NMRJ mice [1]; 300 mg/kg oral
  Sleep Time: 49.06 min
Male NMRJ mice [1]; 400 mg/kg oral
  Sleep Time: 49.28 min
Male NMRJ mice [1]
  ED50: 256 mg/kg
Male NMRJ mice [2]; phenobarbital 256 mg/kg alone, cinnarizine series
  Sleep Time: 22.34 min

## OCC(S)CS (stereo not shown) [Dimercaprol (BAL)]
[3]
  Decomposition of pentobarbital: checks the decomposition of pentobarbital

## Fc1ccc(C(c2ccc(F)cc2)N2CCN(C/C=C/c3ccccc3)CC2)cc1 [Flunarizine]
[4]
  Antihistaminic properties: only weak antihistaminic properties
Male NMRJ mice [2]; flunarizine 0.25 mg/kg + cyclobarbital-Ca 239 mg/kg
  Sleep Time: 39.54 min
Male NMRJ mice [2]; flunarizine 1.0 mg/kg + cyclobarbital-Ca 239 mg/kg, ***p <0.001
  Sleep Time: 62.67 min
Male NMRJ mice [2]; flunarizine 1.0 mg/kg + hexobarbital 710 mg/kg
  Sleep Time: 40.44 min
Male NMRJ mice [2]; flunarizine 2.5 mg/kg + cyclobarbital-Ca 239 mg/kg, ***p <0.001
  Sleep Time: 75.15 min
Male NMRJ mice [2]; flunarizine 2.5 mg/kg + cyclobarbital-Ca + hexobarbital (40 + 30) 225 mg/kg
  Sleep Time: 33.45 min
Male NMRJ mice [2]; flunarizine 2.5 mg/kg + hexobarbital 710 mg/kg
  Sleep Time: 45.17 min
Male NMRJ mice [2]; flunarizine 5.0 mg/kg + hexobarbital 710 mg/kg, ***p <0.001
  Sleep Time: 94.51 min
Male NMRJ mice [2]; flunarizine 10.0 mg/kg + cyclobarbital-Ca + hexobarbital (40 + 30) 225 mg/kg, **p <0.01
  Sleep Time: 56.49 min
Male NMRJ mice [2]; flunarizine 15.0 mg/kg + cyclobarbital-Ca + hexobarbital (40 + 30) 225 mg/kg, ***p <0.001
  Sleep Time: 65.12 min
Male NMRJ mice [2]; flunarizine with cyclobarbital-Ca 239 mg/kg, range (0.29-0.45)
  ED50: 0.38 mg/kg
Male NMRJ mice [2]; flunarizine with cyclobarbital-Ca + hexobarbital (40 + 30) 225 mg/kg, range (6.85-8.30)
  ED50: 7.52 mg/kg
Male NMRJ mice [2]; flunarizine with hexobarbital 710 mg/kg, probit analysis
  ED50: 2.94 mg/kg
Male NMRJ mice [2]; in comparison with the individual barbiturates
  Dosage to obtain an ED50 with the combination of both barbiturates: higher dosages
Male NMRJ mice [2]
  Effect on the action of barbiturates: potentiating or enhancing effect
Male NMRJ mice [2]; with cyclobarbital-calcium
  Potency for cyclobarbital-calcium: highest potency

## CCCC(C)(COC(N)=O)COC(N)=O [Meprobamate]
[5]
  Effect on barbiturates: pontentiating or enhancing effect on barbiturates

## CCC1(C2=CCCCC2)C(=O)NC(=O)NC1=O [Cyclobarbital-Ca]
Male NMR.tau. mice [6]; [8]
  Onset p.a. % of control: 100.0%
  Onset x: 4.27 min
Male NMR.tau. mice [6]; mouse, in vivo
  Effect on onset, in words: marked effect
Male NMRJ mice [1]; 200 mg/kg oral
  Sleep Time: 14.01 min
Male NMRJ mice [1]; 250 mg/kg oral
  Sleep Time: 34.38 min
Male NMRJ mice [1]; 300 mg/kg oral
  Sleep Time: 90 min
Male NMRJ mice [1]; 300 mg/kg oral, footnote 1
  Sleep Time, individual animals: 90 min and 60.5 min and 53.3 min
Male NMRJ mice [1]
  ED50: 239 mg/kg
Male NMR.tau. mice [7]; [8]
  Sleep Time: 24.64 min
  Sleep Time % of control: 100.0%
Tail and corneal reflex; [8]
  Optimum % of control: 100.0%
  Optimum Min.: 10 min
Male NMRJ mice [2]; cyclobarbital-Ca 239 mg/kg alone, cinnarizine series
  Sleep Time: 27.45 min
Male NMRJ mice [2]; cyclobarbital-Ca 239 mg/kg alone, flunarizine series
  Sleep Time: 32.03 min

## CN1C(=O)NC(=O)C(C)(C2=CCCCC2)C1=O (stereo not shown) [Hexobarbital]
Male NMR.tau. mice [6]; [9]
  Onset p.a. % of control: 100.0%
  Onset x: 2.89 min
Male NMRJ mice [1]; 250 mg/kg oral
  Sleep Time: 3.03 min
Male NMRJ mice [1]; 500 mg/kg oral
  Sleep Time: 16.52 min
Male NMRJ mice [1]; 750 mg/kg oral
  Sleep Time: 32.53 min
Male NMRJ mice [1]; 1000 mg/kg oral
  Sleep Time: 56.08 min
Male NMRJ mice [1]
  ED50: 710 mg/kg
Male NMR.tau. mice [7]; [9]
  Sleep Time: 35.86 min
  Sleep Time % of control: 100.0%
Tail and corneal reflex; [9]
  Optimum % of control: 100.0%
  Optimum Min.: 10 to 20 min
  Optimum Reflex: -1
Male NMRJ mice [2]; hexobarbital 710 mg/kg alone, cinnarizine series
  Sleep Time: 32.74 min
Male NMRJ mice [2]; hexobarbital 710 mg/kg alone, flunarizine series
  Sleep Time: 38.78 min

## tocopherol
[5]
  Effect on barbiturates: increases the effect of barbiturates

## C(=C\c1ccccc1)/CN1CCN(C(c2ccccc2)c2ccccc2)CC1 [Cinnarizine, 1-benzhydryl-4-trans-cinnamylpiperazine]
Male NMR.tau. mice [6]; [10]
  Onset p.a. % of control: 86.2%
  Onset x: 2.49 min
Male NMR.tau. mice [6]; [11]
  Onset p.a. % of control: 76.8%
  Onset x: 2.22 min
Male NMR.tau. mice [6]; [12]
  Onset p.a. % of control: 51.3%
  Onset x: 2.19 min
Male NMR.tau. mice [6]; [13]
  Onset p.a. % of control: 94.8%
  Onset x: 1.09 min
Male NMR.tau. mice [6]; [14]
  Onset p.a. % of control: 55.0%
  Onset x: 1.59 min
Male NMR.tau. mice [6]; [15]
  Onset p.a. % of control: 54.1%
  Onset x: 2.31 min
Male NMR.tau. mice [6]; [16]
  Onset p.a. % of control: 102.6%
  Onset x: 1.18 min
Male NMR.tau. mice [6]; [17]
  Onset p.a. % of control: 59.5%
  Onset x: 2.54 min
Male NMR.tau. mice [6]; [18]
  Onset p.a. % of control: 102.6%
  Onset x: 1.18 min
Male NMR.tau. mice [7]; [10]
  Sleep Time: 40.66 min
  Sleep Time % of control: 113.4%
Male NMR.tau. mice [7]; [11]
  Sleep Time: 42.38 min
  Sleep Time % of control: 118.2%
Male NMR.tau. mice [7]; [12]
  Sleep Time: 26.21 min
  Sleep Time % of control: 106.4%
Male NMR.tau. mice [7]; [13]
  Sleep Time: 32.42 min
  Sleep Time % of control: 92.6%
Male NMR.tau. mice [7]; [14]
  Sleep Time: 76.14 min
  Sleep Time % of control: 212.3%
Male NMR.tau. mice [7]; [15]
  Sleep Time: 31.08 min
  Sleep Time % of control: 126.1%
Male NMR.tau. mice [7]; [16]
  Sleep Time: 38.65 min
  Sleep Time % of control: 110.4%
Male NMR.tau. mice [7]; [17]
  Sleep Time: 42.49 min
  Sleep Time % of control: 172.4%
Male NMR.tau. mice [7]; [18]
  Sleep Time: 54.82 min
  Sleep Time % of control: 156.6%
Tail and corneal reflex; [10]
  Optimum % of control: 278.2-336.0%
  Optimum Min.: 10 to 30 min
  Optimum Reflex: -3
Tail and corneal reflex; [11]
  Optimum Min.: 10 to 20 min
  Optimum Reflex: -3
Tail and corneal reflex; [12]
  Optimum % of control: 166.7%
  Optimum Min.: 10 min
  Optimum Reflex: -1
Tail and corneal reflex; [13]
  Optimum % of control: 156.3-183.3%
  Optimum Min.: 10 to 20 min
  Optimum Reflex: -2
Tail and corneal reflex; [14]
  Optimum % of control: 300.8-407.0%
  Optimum Min.: 10 to 30 min
  Optimum Reflex: -4
Tail and corneal reflex; [15]
  Optimum % of control: 350.0%
  Optimum Min.: 10 to 30 min
  Optimum Reflex: -1
Tail and corneal reflex; [16]
  Optimum % of control: 138.8-177.5%
  Optimum Min.: 10 to 20 min
  Optimum Reflex: -2
Tail and corneal reflex; [17]
  Optimum % of control: 350.0%
  Optimum Min.: 10 min
  Optimum Reflex: -2
Tail and corneal reflex; [18]
  Optimum % of control: 175.0-233.0%
  Optimum Min.: 10 to 40 min
Male NMRJ mice [2]; cinnarizine 0.5 mg/kg + hexobarbital 710 mg/kg
  Sleep Time: 35.37 min
Male NMRJ mice [2]; cinnarizine 1.0 mg/kg + cyclobarbital-Ca 239 mg/kg
  Sleep Time: 24.34 min
Male NMRJ mice [2]; cinnarizine 1.0 mg/kg + cyclobarbital-Ca + hexobarbital (40 + 30) 225 mg/kg
  Sleep Time: 31.09 min
Male NMRJ mice [2]; cinnarizine 1.0 mg/kg + hexobarbital 710 mg/kg, **p <0.01
  Sleep Time: 65.58 min
Male NMRJ mice [2]; cinnarizine 1 mg/kg + phenobarbital 256 mg/kg
  Sleep Time: 25.78 min
Male NMRJ mice [2]; cinnarizine 2.5 mg/kg + cyclobarbital-Ca 239 mg/kg, *p <0.05
  Sleep Time: 41.43 min
Male NMRJ mice [2]; cinnarizine 2.5 mg/kg + cyclobarbital-Ca + hexobarbital (40 + 30) 225 mg/kg
  Sleep Time: 37.92 min
Male NMRJ mice [2]; cinnarizine 5.0 mg/kg + cyclobarbital-Ca 239 mg/kg, **p <0.01
  Sleep Time: 49.99 min
Male NMRJ mice [2]; cinnarizine 5.0 mg/kg + cyclobarbital-Ca + hexobarbital (40 + 30) 225 mg/kg, *p <0.05
  Sleep Time: 53.22 min
Male NMRJ mice [2]; cinnarizine 5 mg/kg + phenobarbital 256 mg/kg
  Sleep Time: 32.85 min
Male NMRJ mice [2]; cinnarizine 10 mg/kg + phenobarbital 256 mg/kg, *p <0.05
  Sleep Time: 43.55 min
Male NMRJ mice [2]; cinnarizine […] + hexobarbital 710 mg/kg, **p <0.01
  Sleep Time: 43.93 min
Male NMRJ mice [2]
  Effect on the action of barbiturates: potentiating or enhancing effect
